Results: PubChem BioAssay (NCI)
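Dose response: 5 concentrations. Exposure: 48 h. Format: 96-well plates. Endpoint: linear interpolation; highest concentration if not reached. GI50 = concentration required for 50% inhibition of growth. TGI marks complete inhibition of growth.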

What was measured:
Assay in all cases: NCI-60 cell line screen, 48 h
OVCAR-4 ovarian = tested on: OVCAR-4 ovarian
NCI-H460 lung = tested on: NCI-H460 lung
HCT-116 colon = tested on: HCT-116 colon
OVCAR-3 ovarian = tested on: OVCAR-3 ovarian
MDA-MB-435 = tested on: MDA-MB-435
UACC-62 melanoma = tested on: UACC-62 melanoma
SK-MEL-5 melanoma = tested on: SK-MEL-5 melanoma
RXF 393 renal = tested on: RXF 393 renal
PC-3 prostate = tested on: PC-3 prostate
CCRF-CEM leukemia = tested on: CCRF-CEM leukemia
HT29 colon = tested on: HT29 colon
HS 578T breast = tested on: HS 578T breast
SNB-19 CNS = tested on: SNB-19 CNS
COLO 205 colon = tested on: COLO 205 colon
HCT-15 colon = tested on: HCT-15 colon
MDA-MB-231 breast = tested on: MDA-MB-231 breast
A549 NSCLC = tested on: A549 NSCLC
HL-60(TB) leukemia = tested on: HL-60(TB) leukemia
NCI-H23 lung = tested on: NCI-H23 lung
IGROV1 ovarian = tested on: IGROV1 ovarian
T-47D breast = tested on: T-47D breast
HOP-92 NSCLC = tested on: HOP-92 NSCLC
SF-539 CNS = tested on: SF-539 CNS
SK-MEL-28 melanoma = tested on: SK-MEL-28 melanoma
MOLT-4 leukemia = tested on: MOLT-4 leukemia
NCI-H522 lung = tested on: NCI-H522 lung
786-0 renal = tested on: 786-0 renal
NCI-H226 lung = tested on: NCI-H226 lung
LOX IMVI melanoma = tested on: LOX IMVI melanoma
HOP-62 NSCLC = tested on: HOP-62 NSCLC
HCC-2998 colon = tested on: HCC-2998 colon
TK-10 renal = tested on: TK-10 renal
OVCAR-5 ovarian = tested on: OVCAR-5 ovarian
CAKI-1 renal = tested on: CAKI-1 renal
SF-295 CNS = tested on: SF-295 CNS
A498 renal = tested on: A498 renal
SK-MEL-2 melanoma = tested on: SK-MEL-2 melanoma
UO-31 renal = tested on: UO-31 renal
OVCAR-8 ovarian = tested on: OVCAR-8 ovarian
RPMI-8226 leukemia = tested on: RPMI-8226 leukemia
U251 CNS = tested on: U251 CNS
ACHN renal = tested on: ACHN renal
BT-549 breast = tested on: BT-549 breast
KM12 colon = tested on: KM12 colon
MALME-3M melanoma = tested on: MALME-3M melanoma
K-562 leukemia = tested on: K-562 leukemia
SW-620 colon = tested on: SW-620 colon
NCI/ADR-RES ovarian = tested on: NCI/ADR-RES ovarian

Compound: N#C/C(=C\c1ccc(Br)cc1)n1nnc2cc(F)c(F)cc21
- GI50 (OVCAR-4 ovarian): 1950 nM
- TGI (OVCAR-4 ovarian): 6090 nM
- GI50 (NCI-H460 lung): 1960 nM
- TGI (NCI-H460 lung): 3980 nM
- GI50 (HCT-116 colon): 1560 nM
- TGI (HCT-116 colon): 3440 nM
- GI50 (OVCAR-3 ovarian): 1890 nM
- TGI (OVCAR-3 ovarian): 3760 nM
- GI50 (MDA-MB-435): 1380 nM
- TGI (MDA-MB-435): 3230 nM
- GI50 (UACC-62 melanoma): 1460 nM
- TGI (UACC-62 melanoma): 3000 nM
- GI50 (SK-MEL-5 melanoma): 1760 nM
- TGI (SK-MEL-5 melanoma): 3170 nM
- GI50 (RXF 393 renal): 1370 nM
- TGI (RXF 393 renal): 2770 nM
- GI50 (PC-3 prostate): 1800 nM
- TGI (PC-3 prostate): 3810 nM
- GI50 (CCRF-CEM leukemia): 1480 nM
- TGI (CCRF-CEM leukemia): 8810 nM
- GI50 (HT29 colon): 1850 nM
- TGI (HT29 colon): 3620 nM
- GI50 (HS 578T breast): 2710 nM
- TGI (HS 578T breast): 8300 nM
- GI50 (SNB-19 CNS): 1640 nM
- TGI (SNB-19 CNS): 3070 nM
- GI50 (COLO 205 colon): 1990 nM
- TGI (COLO 205 colon): 4040 nM
- GI50 (HCT-15 colon): 1340 nM
- TGI (HCT-15 colon): 2930 nM
- GI50 (MDA-MB-231 breast): 2230 nM
- TGI (MDA-MB-231 breast): 5920 nM
- GI50 (A549 NSCLC): 2140 nM
- TGI (A549 NSCLC): 5620 nM
- GI50 (HL-60(TB) leukemia): 2070 nM
- TGI (HL-60(TB) leukemia): 4960 nM
- GI50 (NCI-H23 lung): 1760 nM
- TGI (NCI-H23 lung): 3440 nM
- GI50 (IGROV1 ovarian): 1740 nM
- TGI (IGROV1 ovarian): 3770 nM
- GI50 (T-47D breast): 1270 nM
- TGI (T-47D breast): 4080 nM
- GI50 (HOP-92 NSCLC): 1570 nM
- TGI (HOP-92 NSCLC): 4150 nM
- GI50 (SF-539 CNS): 1860 nM
- TGI (SF-539 CNS): 3390 nM
- GI50 (SK-MEL-28 melanoma): 1840 nM
- TGI (SK-MEL-28 melanoma): 3630 nM
- GI50 (MOLT-4 leukemia): 2700 nM
- TGI (MOLT-4 leukemia): 8650 nM
- GI50 (NCI-H522 lung): 1350 nM
- TGI (NCI-H522 lung): 3250 nM
- GI50 (786-0 renal): 1670 nM
- TGI (786-0 renal): 3180 nM
- GI50 (NCI-H226 lung): 2170 nM
- TGI (NCI-H226 lung): 4990 nM
- GI50 (LOX IMVI melanoma): 1550 nM
- TGI (LOX IMVI melanoma): 2980 nM
- GI50 (HOP-62 NSCLC): 1930 nM
- TGI (HOP-62 NSCLC): 4270 nM
- GI50 (HCC-2998 colon): 2020 nM
- TGI (HCC-2998 colon): 3670 nM
- GI50 (TK-10 renal): 2160 nM
- TGI (TK-10 renal): 5560 nM
- GI50 (OVCAR-5 ovarian): 1850 nM
- TGI (OVCAR-5 ovarian): 3570 nM
- GI50 (CAKI-1 renal): 1370 nM
- TGI (CAKI-1 renal): 2790 nM
- GI50 (SF-295 CNS): 1580 nM
- TGI (SF-295 CNS): 3270 nM
- GI50 (A498 renal): 1740 nM
- TGI (A498 renal): 3200 nM
- GI50 (SK-MEL-2 melanoma): 1760 nM
- TGI (SK-MEL-2 melanoma): 3400 nM
- GI50 (UO-31 renal): 1460 nM
- TGI (UO-31 renal): 2780 nM
- GI50 (OVCAR-8 ovarian): 1690 nM
- TGI (OVCAR-8 ovarian): 3990 nM
- GI50 (RPMI-8226 leukemia): 2010 nM
- TGI (RPMI-8226 leukemia): 4760 nM
- GI50 (U251 CNS): 1600 nM
- TGI (U251 CNS): 3060 nM
- GI50 (ACHN renal): 1900 nM
- TGI (ACHN renal): 3630 nM
- GI50 (BT-549 breast): 1740 nM
- TGI (BT-549 breast): 4510 nM
- GI50 (KM12 colon): 1780 nM
- TGI (KM12 colon): 3740 nM
- GI50 (MALME-3M melanoma): 1590 nM
- TGI (MALME-3M melanoma): 3120 nM
- GI50 (K-562 leukemia): 2000 nM
- TGI (K-562 leukemia): > 100000 nM
- GI50 (SW-620 colon): 1550 nM
- TGI (SW-620 colon): 3320 nM
- GI50 (NCI/ADR-RES ovarian): 2300 nM
- TGI (NCI/ADR-RES ovarian): > 100000 nM
